From patent US9206188B2, “Substituted pyrrolo[2,3-b]pyridines as ITK and JAK inhibitors” (Arrien Pharmaceuticals LLC, priority 2013, dated 2015)
Read-outs that look alike come from different tables or passages of the source.

Legend:
ITK = ITK (Homo sapiens (Human), UniProt Q08881); assay: ITK kinase assay (radiometric filter binding, 10 μM ATP); assay type: biochemical
Method: (§1) All additions were done on ice, followed by the addition of ATP mix. Wells were uniformly mixed using an Eppendorff plate shaker and incubated at 30° C. for 20 min, and stopped by the addition of 5 μL of 3% phosphoric acid. Volume was increased to 100 μL by adding 0.8% phosphoric acid which was then transferred to PC filter mats (Millipore), pre-equilibrated with 70% ethanol and water. Plates were washed thrice with 100 μL 0.8% phosphoric acid and dried for an hour at 60° C. 100 μL scintillation fluid was added into each well and reading taken in Perkin Elmer TOPCOUNT beta counter.
(§2) The reactions were carried out at 10 μM ATP for ITK, JAK3 and other TEC and Janus family of kinase.

JAK3 = JAK3 (Homo sapiens (Human), UniProt P52333); assay: JAK3 kinase assay (radiometric filter binding, 10 μM ATP); assay type: biochemical
JAK3, sequence (P52333 whole entry): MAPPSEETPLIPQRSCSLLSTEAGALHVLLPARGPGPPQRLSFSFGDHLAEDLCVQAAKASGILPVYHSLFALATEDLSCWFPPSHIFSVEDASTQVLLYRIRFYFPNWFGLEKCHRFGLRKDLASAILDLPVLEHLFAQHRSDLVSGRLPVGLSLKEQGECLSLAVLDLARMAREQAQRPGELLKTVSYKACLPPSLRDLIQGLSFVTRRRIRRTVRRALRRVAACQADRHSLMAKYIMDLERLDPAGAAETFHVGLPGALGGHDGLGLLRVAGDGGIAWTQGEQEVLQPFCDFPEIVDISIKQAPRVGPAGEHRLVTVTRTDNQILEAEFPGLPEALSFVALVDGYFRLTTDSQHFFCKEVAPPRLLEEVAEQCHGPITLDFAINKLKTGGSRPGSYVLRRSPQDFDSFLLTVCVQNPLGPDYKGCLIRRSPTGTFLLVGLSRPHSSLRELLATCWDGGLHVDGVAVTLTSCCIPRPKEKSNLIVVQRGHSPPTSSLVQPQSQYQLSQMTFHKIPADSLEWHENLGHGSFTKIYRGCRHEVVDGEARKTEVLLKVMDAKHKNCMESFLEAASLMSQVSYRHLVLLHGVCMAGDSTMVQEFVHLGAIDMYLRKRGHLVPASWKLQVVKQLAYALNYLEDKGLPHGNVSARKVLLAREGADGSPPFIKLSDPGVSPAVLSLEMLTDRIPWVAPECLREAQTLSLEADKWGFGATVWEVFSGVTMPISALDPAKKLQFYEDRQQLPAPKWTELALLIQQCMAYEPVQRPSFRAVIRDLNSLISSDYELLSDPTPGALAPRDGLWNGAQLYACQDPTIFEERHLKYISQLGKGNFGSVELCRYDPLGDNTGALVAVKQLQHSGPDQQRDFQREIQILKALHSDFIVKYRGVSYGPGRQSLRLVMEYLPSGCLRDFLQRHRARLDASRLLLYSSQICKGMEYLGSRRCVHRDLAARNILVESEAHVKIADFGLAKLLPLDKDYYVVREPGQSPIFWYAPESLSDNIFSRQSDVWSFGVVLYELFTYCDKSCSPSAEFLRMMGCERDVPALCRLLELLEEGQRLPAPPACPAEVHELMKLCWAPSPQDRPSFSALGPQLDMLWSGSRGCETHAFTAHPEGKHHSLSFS
Method: as §1, §2

[1] = 10-dose IC50 mode, 10 μM ATP, read-out: ITK kinase inhibition
[2] = 10-dose IC50 mode, 10 μM ATP, read-out: JAK3 kinase inhibition
[3] = read-out: biochemical IC50 against ITK
[4] = read-out: biochemical IC50 against JAK3

ITK, sequence (Q08881 whole entry): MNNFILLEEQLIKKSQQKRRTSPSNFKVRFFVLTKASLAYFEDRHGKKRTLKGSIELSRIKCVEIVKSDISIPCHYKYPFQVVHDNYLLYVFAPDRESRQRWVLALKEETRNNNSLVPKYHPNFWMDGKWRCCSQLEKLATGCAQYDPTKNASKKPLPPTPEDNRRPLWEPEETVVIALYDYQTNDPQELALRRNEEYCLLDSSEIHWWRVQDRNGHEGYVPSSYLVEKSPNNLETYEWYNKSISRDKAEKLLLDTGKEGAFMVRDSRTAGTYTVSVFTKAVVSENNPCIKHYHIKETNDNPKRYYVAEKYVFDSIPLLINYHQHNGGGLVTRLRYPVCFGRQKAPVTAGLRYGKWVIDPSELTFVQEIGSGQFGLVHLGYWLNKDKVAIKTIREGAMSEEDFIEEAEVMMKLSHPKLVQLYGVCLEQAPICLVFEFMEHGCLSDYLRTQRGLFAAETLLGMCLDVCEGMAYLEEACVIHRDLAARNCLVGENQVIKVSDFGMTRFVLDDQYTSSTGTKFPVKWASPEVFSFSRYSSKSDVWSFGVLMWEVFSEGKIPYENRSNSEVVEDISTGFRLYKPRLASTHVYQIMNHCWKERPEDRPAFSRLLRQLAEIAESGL

IC50 (ITK; [1]) | IC50 (JAK3; [2]) | IC50 (ITK; [3]) | IC50 (JAK3; [4]) | SMILES | IC50 (ITK; read-out: ITK kinase inhibition)
> 100 nM | > 100 nM | – | – | Cc1n[nH]c2ncc(-c3cccc(NC(=O)/C=C/N(C)C)c3)cc12 [Example 48, (E)-3-(dimethylamino)-N-(3-(3-methyl-1H-pyrazolo[3,4-b]pyridin-5-yl)phenyl)acrylamide] | –
> 100 nM | > 100 nM | – | – | Cc1n[nH]c2ncc(-c3ccc(Cl)c(NC(=O)/C=C/N(C)C)c3)cc12 [Example 49, (E)-N-(2-chloro-5-(3-methyl-1H-pyrazolo[3,4-b]pyridin-5-yl)phenyl)-3-(dimethylamino)acrylamide] | –
> 100 nM | > 100 nM | – | – | C=CC(=O)Nc1cc(-c2cnc3[nH]nc(C)c3c2)ccc1Cl [Example 50, N-(2-chloro-5-(3-methyl-1H-pyrazolo[3,4-b]pyridin-5-yl)phenyl)acrylamide] | –
> 1000 nM | > 1000 nM | – | – | CC/C=C/C(=O)Nc1cc(-c2cnc3[nH]nc(C)c3c2)ccc1Cl [Example 52, (E)-N-(2-chloro-5-(3-methyl-1H-pyrazolo[3,4-b]pyridin-5-yl)phenyl)pent-2-enamide] | –
> 1000 nM | > 1000 nM | – | – | N#CCc1cccc(Nc2cnc3[nH]cc(Cl)c3c2)c1 [Example 53, 2-(3-((3-chloro-1H-pyrrolo[2,3-b]pyridin-5-yl)amino)phenyl)acetonitrile] | –
> 100 nM | < 100 nM | – | – | C=CC(=O)Nc1cccc(-c2cnc3[nH]ccc3c2)n1 [Example 57, N-(6-(1H-pyrrolo[2,3-b]pyridin-5-yl)pyridin-2-yl)acrylamide] | –
> 100 nM | < 100 nM | – | – | C=CC(=O)Nc1cccc(-c2cnc3[nH]cc(Cl)c3c2)n1 [Example 58, N-(6-(3-chloro-1H-pyrrolo[2,3-b]pyridin-5-yl)pyridin-2-yl)acrylamide] | –
< 100 nM | < 100 nM | – | – | C=CC(=O)Nc1cc(-c2cnc3[nH]ccc3c2)ccc1F [Example 59, N-(2-fluoro-5-(1H-pyrrolo[2,3-b]pyridin-5-yl)phenyl)acrylamide] | –
> 1000 nM | > 100 nM | – | – | C=CC(=O)Nc1ccc(-c2cnc3[nH]ccc3c2)cc1F [Example 61, N-(2-fluoro-4-(1H-pyrrolo[2,3-b]pyridin-5-yl)phenyl)acrylamide] | –
> 1000 nM | > 100 nM | – | – | C=CC(=O)Nc1cc(-c2cnc3[nH]ccc3c2)cc(F)c1F [Example 63, N-(2,3-difluoro-5-(1H-pyrrolo[2,3-b]pyridin-5-yl)phenyl)acrylamide] | –
< 100 nM | < 100 nM | 100 to 1000 nM | 100 to 1000 nM | C=CC(=O)Nc1cccc(-c2cnc3[nH]cc(-c4cc5ccccc5[nH]4)c3c2)c1 [Example 66, N-(3-(3-(1H-indol-2-yl)-1H-pyrrolo[2,3-b]pyridin-5-yl)phenyl)acrylamide] | –
> 100 nM | > 100 nM | – | – | O=C(Nc1cccc(-c2cnc3[nH]cc(Cl)c3c2)c1)C1CCCN1 (centres unmarked) [Example 67, N-(3-(3-chloro-1H-pyrrolo[2,3-b]pyridin-5-yl)phenyl)pyrrolidine-2-carboxamide] | –
> 100 nM | > 100 nM | – | – | C=CC(=O)N1CCCC1C(=O)Nc1cccc(-c2cnc3[nH]cc(Cl)c3c2)c1 (centres unmarked) [Example 68, 1-acryloyl-N-(3-(3-chloro-1H-pyrrolo[2,3-b]pyridin-5-yl)phenyl)pyrrolidine-2-carboxamide] | –
> 100 nM | < 100 nM | – | – | C#CC(=O)Nc1cccc(-c2cnc3[nH]cc(C)c3c2)c1 [Example 70, N-(3-(3-methyl-1H-pyrrolo[2,3-b]pyridin-5-yl)phenyl)propiolamide] | –
> 100 nM | > 100 nM | – | – | Cc1c[nH]c2ncc(-c3cccc(NC(=O)C4CCCN4)c3)cc12 (centres unmarked) [Example 71, N-(3-(3-methyl-1H-pyrrolo[2,3-b]pyridin-5-yl)phenyl)pyrrolidine-2-carboxamide] | –
> 100 nM | > 100 nM | – | – | C=CC(=O)N1CCCC1C(=O)Nc1cccc(-c2cnc3[nH]cc(C)c3c2)c1 (centres unmarked) [Example 72, 1-acryloyl-N-(3-(3-methyl-1H-pyrrolo[2,3-b]pyridin-5-yl)phenyl)pyrrolidine-2-carboxamide] | –
> 1000 nM | > 100 nM | – | – | C=CC(=O)Nc1cccc(-c2cnc3[nH]cc(-c4cc5ccccc5[nH]4)c3c2)c1 [Example 74, N-(3-(3-(1H-indol-2-yl)-1H-pyrrolo[2,3-b]pyridin-5-yl)phenyl)acrylamide] | –
> 1000 nM | < 100 nM | 100 to 1000 nM | 100 to 1000 nM | C=CC(=O)Nc1cccc(-c2cnc3[nH]cc(-c4cc5ccc(C)cc5[nH]4)c3c2)c1 [Example 75, N-(3-(3-(6-methyl-1H-indol-2-yl)-1H-pyrrolo[2,3-b]pyridin-5-yl)phenyl)acrylamide] | –

IC50 (ITK; [1]) | IC50 (JAK3; [2]) | IC50 (ITK; [3]) | IC50 (JAK3; [4]) | SMILES | IC50 (ITK; read-out: ITK kinase inhibition)
> 100 nM | > 100 nM | – | – | C=CC(=O)Nc1cccc(-c2cnc3[nH]cc(-c4cccc(C(N)=O)c4)c3c2)c1 [Example 76, 3-(5-(3-acrylamidophenyl)-1H-pyrrolo[2,3-b]pyridin-3-yl)benzamide] | –
< 100 nM | < 100 nM | – | – | C#CC(=O)Nc1cccc(-c2cnc3[nH]ccc3c2)n1 [Example 77, N-(6-(1H-pyrrolo[2,3-b]pyridin-5-yl)pyridin-2-yl)propiolamide] | –
< 100 nM | < 100 nM | – | – | CCC#CC(=O)Nc1cccc(-c2cnc3[nH]ccc3c2)n1 [Example 78, N-(6-(1H-pyrrolo[2,3-b]pyridin-5-yl)pyridin-2-yl)pent-2-ynamide] | –
< 100 nM | < 100 nM | – | – | C#CC(=O)Nc1cccc(-c2cnc3[nH]cc(Cl)c3c2)n1 [Example 79, N-(6-(3-chloro-1H-pyrrolo[2,3-b]pyridin-5-yl)pyridin-2-yl)propiolamide] | –
< 100 nM | < 100 nM | – | – | CCC#CC(=O)Nc1cccc(-c2cnc3[nH]cc(Cl)c3c2)n1 [Example 80, N-(6-(3-chloro-1H-pyrrolo[2,3-b]pyridin-5-yl)pyridin-2-yl)pent-2-ynamide] | –
< 100 nM | < 100 nM | – | – | CC#CC(=O)Nc1cccc(-c2cnc3[nH]ccc3c2)n1 [Example 81, N-(6-(1H-pyrrolo[2,3-b]pyridin-5-yl)pyridin-2-yl)but-2-ynamide] | –
< 100 nM | < 100 nM | – | – | CC#CC(=O)Nc1cccc(-c2cnc3[nH]cc(Cl)c3c2)n1 [Example 82, N-(6-(3-chloro-1H-pyrrolo[2,3-b]pyridin-5-yl)pyridin-2-yl)but-2-ynamide] | –
> 1000 nM | < 100 nM | – | – | C#CC(=O)Nc1cc(-c2cnc3[nH]ccc3c2)ccc1F [Example 83, N-(2-fluoro-5-(1H-pyrrolo[2,3-b]pyridin-5-yl)phenyl)propiolamide] | –
> 1000 nM | < 100 nM | – | – | C#CC(=O)Nc1cc(-c2cnc3[nH]cc(Cl)c3c2)ccc1F [Example 84, N-(5-(3-chloro-1H-pyrrolo[2,3-b]pyridin-5-yl)-2-fluorophenyl)propiolamide] | –
> 1000 nM | < 100 nM | – | – | CCC#CC(=O)Nc1cc(-c2cnc3[nH]ccc3c2)ccc1F [Example 85, N-(2-fluoro-5-(1H-pyrrolo[2,3-b]pyridin-5-yl)phenyl)pent-2-ynamide] | –
> 100 nM | < 100 nM | – | – | CCC#CC(=O)Nc1cc(-c2cnc3[nH]cc(Cl)c3c2)ccc1F [Example 86, N-(5-(3-chloro-1H-pyrrolo[2,3-b]pyridin-5-yl)-2-fluorophenyl)pent-2-ynamide] | –
> 100 nM | < 100 nM | – | – | CC#CC(=O)Nc1cc(-c2cnc3[nH]ccc3c2)ccc1F [Example 87, N-(2-fluoro-5-(1H-pyrrolo[2,3-b]pyridin-5-yl)phenyl)but-2-ynamide] | –
< 100 nM | < 100 nM | – | – | CCC#CC(=O)Nc1cccc(-c2cnc3[nH]cc(C)c3c2)n1 [Example 90, N-(6-(3-methyl-1H-pyrrolo[2,3-b]pyridin-5-yl)pyridin-2-yl)pent-2-ynamide] | –
< 100 nM | < 100 nM | – | – | CC#CC(=O)Nc1cccc(-c2cnc3[nH]cc(C)c3c2)n1 [Example 91, N-(6-(3-methyl-1H-pyrrolo[1,3-b]pyridin-5-yl)pyridin-2-yl)but-2-ynamide] | –
< 100 nM | < 100 nM | – | – | C#CC(=O)Nc1cc(-c2cnc3[nH]cc(C)c3c2)ccc1F [Example 92, N-(2-fluoro-5-(3-methyl-1H-pyrrolo[2,3-b]pyridin-5-yl)phenyl)propiolamide] | –
> 100 nM | > 100 nM | – | – | CC#CC(=O)Nc1cc(-c2cnc3[nH]cc(C)c3c2)ccc1F [Example 93, N-(2-fluoro-5-(3-methyl-1H-pyrrolo[2,3-b]pyridin-5-yl)phenyl)but-2-ynamide] | –
> 100 nM | > 100 nM | – | – | C#CC(=O)Nc1cccc(-c2cnc3[nH]cc(-c4cccc(S(=O)(=O)N(C)C(C)(C)C)c4)c3n2)c1 [Example 95, N-(3-(7-(3-(N-(tert-butyl)-N-methylsulfamoyl)phenyl)-5H-pyrrolo[2,3-b]pyrazin-2-yl)phenyl)propiolamide] | –

SMILES | IC50 (ITK; [1]) | IC50 (JAK3; [2]) | IC50 (ITK; [3]) | IC50 (JAK3; [4]) | IC50 (ITK; read-out: ITK kinase inhibition)
C=CC(=O)Nc1ccc(-c2cnc3[nH]cc(Cl)c3c2)cc1F [Example 62, -(4-(3-chloro-1H-pyrrolo[2,3-b]pyridin-5-yl)-2-fluorophenyl)acrylamide] | > 1000 nM | > 100 nM | – | – | –
C=CC(=O)N1CCCC1C(=O)Nc1cnc2[nH]ccc2c1 (centres unmarked) [Example 69, 1-acryloyl-N-(1H-pyrrolo[2,3-b]pyridin-5-yl)pyrrolidine-2-carboxamide] | > 100 nM | > 100 nM | – | – | –
CC#CC(=O)Nc1cccc(-c2cnc3[nH]cc(-c4cccc(S(=O)(=O)N(C)C(C)(C)C)c4)c3c2)c1 [Example 94, N-(3-(3-(3-(N-(tert-butyl)-N-methylsulfamoyl)phenyl)-1H-pyrrolo[2,3-b]pyridin-5-yl)phenyl)but-2-ynamide] | – | > 100 nM | – | – | > 100 nM
